These results are taken from patent publication US9469615B2, “Quinoxalines and AZA-quinoxalines as CRTH2 receptor modulators” (Merck Sharp & Dohme Corp., priority 2010, dated 2016).

The test addresses T1, hCRTH2 (Homo sapiens, UniProt Q9Y5Y4).
T1 construct: expressed in transfected cells; host or cells: HEK (human embryonic kidney) cells expressing hCRTH2; membrane preparation
T1 sequence (Q9Y5Y4 1-395): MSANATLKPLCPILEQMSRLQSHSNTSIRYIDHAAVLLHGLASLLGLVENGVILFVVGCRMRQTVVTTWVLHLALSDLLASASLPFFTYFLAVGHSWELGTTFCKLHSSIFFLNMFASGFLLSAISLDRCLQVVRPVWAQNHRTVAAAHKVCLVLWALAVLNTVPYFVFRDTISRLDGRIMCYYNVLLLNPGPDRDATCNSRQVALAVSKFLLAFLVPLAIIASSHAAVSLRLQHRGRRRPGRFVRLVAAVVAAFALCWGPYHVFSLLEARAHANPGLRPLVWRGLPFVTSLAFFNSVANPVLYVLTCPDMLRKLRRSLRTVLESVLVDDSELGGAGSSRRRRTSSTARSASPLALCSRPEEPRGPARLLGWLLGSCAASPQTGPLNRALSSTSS
The test can be described thus: Radioligand binding assay ([3H]PGD2 competition, HEK-hCRTH2 membranes). The essentials:
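Displacement of 3.0 nM [3H]PGD2 from human CRTH2 expressed in HEK membranes was measured at room temperature over 60 min. Unlabelled PGD2 at 10 μM gave non-specific binding.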

The mark [1] stands for this setting: [3H]PGD2 binding, rated A-E (Table A).
Where [2] appears, read: [3H]PGD2 binding, values in text.

What is called Ki is a measure of affinity in units of concentration, obtained from inhibition or displacement. A low value points to tighter binding. In turn, `Cc1cnnn1C1CCN(C(=O)c2ccc3nc(-c4ccccc4)c(CCCCC(=O)O)nc3c2)CC1` [15BR, 5-(7-{[4-(5-methyl-1H-1,2,3-triazol-1-yl)piperidin-1-yl]carbonyl}-3-phenylquinoxalin-2-yl)pentanoic acid] registered an inhibition constant Ki under setting [1] of 0.1 to 2 nM and an inhibition constant Ki under setting [2] of 0.1 nM.

`O=C(O)CCCCc1nc2cc(C(=O)N3CCCC3c3ccccc3)ccc2nc1-c1ccc(Cl)cc1` (stereo not drawn) [compound 646, 5-(3-(4-chlorophenyl)-7-(2-phenylpyrrolidine-1-carbonyl)quinoxalin-2-yl)pentanoic acid] displayed an inhibition constant Ki ([3H]PGD2 competition, Table B) of 2.1 to 20 nM.

In turn, `O=C(O)CCCCc1nc2cc(C(=O)N3CCN(c4cccc(C(F)(F)F)c4)CC3)ccc2nc1-c1ccc(Cl)cc1` [compound 610, 5-(3-(4-chlorophenyl)-7-(4-(3-(trifluoromethyl)phenyl)piperazine-1-carbonyl)quinoxalin-2-yl)pentanoic acid] showed a Ki ([3H]PGD2 competition, Table B) of 0.1 to 2 nM. Molecule `O=C(O)CCCCc1nc2cc(C(=O)N3CCC[C@@H](c4ccccc4)C3)ccc2nc1-c1ccccc1` [compound 142, 3-phenyl-7-[(3(S)-phenyl-1-piperidinyl)carbonyl]-2-quinoxalinepentanoic acid] yielded a Ki under setting [1] of 2.1 to 20 nM. On the same count and under the same terms, the figure for `C[C@@H](NC(=O)c1ccc2nc(-c3ccccc3)c(CC[C@H]3C[C@@H]3C(=O)O)nc2c1)c1ccc(Cl)cc1` [compound 233, trans-2-[2-[7-[[[1(R)-(4-chlorophenyl)ethyl]amino]carbonyl]-3-phenyl-2-quinexalinyl]ethyl]cyclopropanecarboxylic acid] is 2.1 to 20 nM; for `O=C(O)CCCCc1nc2cc(C(=O)N[C@H](c3ccc(Cl)cc3)C(F)(F)F)ccc2nc1-c1ccc(F)cc1` [compound 228, 7-[[[1(R)-(4-chlorophenyl)-2,2,2-trifluoroethyl]amino]carbonyl]-3-(4-fluorophenyl)-2-quinoxalinepentanoic acid] it is 0.1 to 2 nM; for `O=C(O)CCCCc1nc2cc(C(=O)N[C@H]3CCCc4cc(F)ccc43)ccc2nc1-c1ccc(F)cc1` [compound 220, 3-(4-fluorophenyl)-7-[[(6-fluoro-1,2,3,4-tetrahydro-1(S)-naphthalenyl)amino]carbonyl]-2-quinoxalinepentanoic acid] it is 0.1 to 2 nM. `C[C@@H](NC(=O)c1ccc2nc(-c3ccc(F)c(F)c3)c(CCCCC(=O)O)nc2c1)c1ccc(F)cc1` [compound 411]: where the note is “[3H]PGD2 competition, Table B”, the Ki fell in the range of 20.1 to 200 nM.

Consider `O=C(O)CCCCc1nc2cc(C(=O)N3CCN(c4ncccc4Cl)CC3)ccc2nc1-c1ccc(Cl)cc1` [compound 676, 5-(3-(4-chlorophenyl)-7-(4-(3-chloropyridin-2-yl)piperazine-1-carbonyl)quinoxalin-2-yl)pentanoic acid], for which the Ki ([3H]PGD2 competition, Table B) fell in the range of 2.1 to 20 nM. `CC(CCCc1nc2cc(C(=O)NCc3ccc(F)cc3)ccc2nc1-c1ccc(F)cc1)C(=O)O` (stereo not drawn) [compound 204, 3-(4-fluorophenyl)-7-[[[(4-fluorophenyl)methyl]amino]carbonyl]-alpha-methyl-2-quinoxalinepentanoic acid] came in with an inhibition constant Ki under setting [1] of 2.1 to 20 nM. On the same count and under the same terms, the result for `O=C(O)CCCCc1nc2cc(C(=O)NCc3ccncc3)ccc2nc1-c1ccccc1` [15AH, 5-{3-phenyl-7-[(pyridin-4-ylmethyl)carbamoyl]quinoxalin-2-yl} pentanoic acid] reads 20.1 to 200 nM. Molecule `O=C(O)CCCCc1nc2cc(C(=O)NC3CCCOc4ccccc43)ccc2nc1-c1ccccc1` (stereo not drawn) [compound 294, 5-(3-phenyl-7-((2,3,4,5-tetrahydrobenzo[b]oxepin-5-yl)carbamoyl)quinoxalin-2-yl)pentanoic acid] showed a Ki ([3H]PGD2 competition, Table B) of 2.1 to 20 nM. Same read-out and setting: the result for `C[C@H](CCc1nc2cc(C(=O)N3CC[C@@H](c4ccccc4)C3)ccc2nc1-c1ccccc1)CC(=O)O` [compound 282, (R)-3-methyl-5-(3-phenyl-7-((S)-3-phenylpyrrolidine-1-carbonyl)quinoxalin-2-yl)pentannic acid] reads 201 to 700 nM; that for `O=C(O)CCCCc1nc2cc(C(=O)N[C@H]3CCCc4ccccc43)ccc2nc1-c1ccccc1` [compound 388, (S)-5-(3-phenyl-7-((1,2,3,4-tetrahydronaphthalen-1-yl)carbamoyl)quinoxalin-2-yl)pentanoic acid], 2.1 to 20 nM. With `O=C(O)CCCCc1nc2cc(C(=O)NCc3ccccc3F)ccc2nc1-c1ccccc1` [15AB, 5-{7-[(2-fluorobenzyl)carbamoyl]-3-phenylquinoxalin-2-yl}pentanoic acid], under setting [1], the Ki was 0.1 to 2 nM. For the molecule `O=C(O)CCCCc1nc2cc(C(=O)N3CCN(c4ccccc4Cl)CC3)ccc2nc1-c1ccc(F)cc1` [compound 364, 5-(7-(4-(2-chlorophenyl)piperazine-1-carbonyl)-3-(4-fluorophenyl)quinoxalin-2-yl)pentanoic acid], the inhibition constant (Ki) ([3H]PGD2 competition, Table B) lay within 2.1 to 20 nM.

Under “[3H]PGD2 competition, Table B”, `C[C@@H](c1ccccc1)N(C)C(=O)c1ccc2nc(-c3ccc(Cl)cc3)c(CCCCC(=O)O)nc2c1` [compound 644, (S)-5-(3-(4-chloro-phenyl)-7-(methyl(1-phenylethyl)carbamoyl)quinoxalin-2-yl) pentanoic acid] yielded a Ki of 2.1 to 20 nM. Take `O=C(O)CCCCc1nc2cc(C(=O)N3CCCC3c3nccs3)ccc2nc1-c1ccc(Cl)cc1` (stereo not drawn) [compound 659, 5-(3-(4-chlorophenyl)-7-(2-(thiazol-2-yl)pyrrolidine-1-carbonyl)quinoxalin-2-yl)pentanoic acid]: for the setting “[3H]PGD2 competition, Table B”, the inhibition constant (Ki) fell in the range of 20.1 to 200 nM.

In the case of `O=C(O)CCCCc1nc2cc(C(=O)N3CCCc4ccccc43)ccc2nc1-c1ccccc1` [15Bi, 5-[7-(3,4-dihydro-quinolin-1(2H)-ylcarbonyl)-3-phenylquinoxalin-2-yl]pentanoic acid], the Ki under setting [1] is 0.1 to 2 nM.

Molecule `O=C(O)CCCCc1nc2cc(C(=O)Nc3ccccc3F)ccc2nc1-c1ccc(F)cc1` [5P, 3-(4-fluorophenyl)-7-[[(2-fluorophenyl)amino]carbonyl]-2-quinoxalinepentanoic acid] displayed an inhibition constant (Ki) under setting [1] of 201 to 700 nM and an inhibitory constant (Ki) under setting [2] of 266 nM. Regarding `O=C(O)CCCOc1nc2cc(C(=O)NCc3ccc(Cl)cc3)ccc2nc1-c1ccccc1` [10C, 4-({7-[(4-chlorobenzyl)carbamoyl]-3-phenylquinoxalin-2-yl}oxy)butanoic acid], under setting [1], the Ki is 0.1 to 2 nM. On to `O=C(O)CCCCc1nc2cc(C(=O)NCC3(c4ccc(F)cc4)CC3)ccc2nc1-c1ccc(Cl)cc1` [compound 318, 5-(3-(4-chlorophenyl)-7-(((1-(4-fluorophenyl)cyclopropyl)methyl)carbamoyl)quinoxalin-2-yl)pentanoic acid], for which the inhibition constant (Ki) ([3H]PGD2 competition, Table B) is 2.1 to 20 nM. Turning to `O=C(O)CCCCc1nc2cc(C(=O)N3CCC(c4ccc(F)cc4)CC3)ccc2nc1-c1ccc(Cl)cc1` [compound 414, 5-(3-(4-chlorophenyl)-7-(4-(4-fluorophenyl)piperidine-1-carbonyl)quinoxalin-2-yl)pentanoic acid], where the note is “[3H]PGD2 competition, Table B”, the inhibition constant (Ki) fell in the range of 0.1 to 2 nM. Same read-out and setting: the result for `O=C(O)CCCCc1nc2cc(C(=O)N3CCC3c3ccccc3)ccc2nc1-c1ccc(Cl)cc1` (stereo not drawn) [compound 648, 5-(3-(4-chlorophenyl)-7-(2-phenylazetidine-1-carbonyl)quinoxalin-2-yl)pentanoic acid] reads 2.1 to 20 nM. The same measure, in the same setting: the figure for `CC(CCCc1nc2cc(C(=O)N[C@@H]3CCCc4cc(Cl)ccc43)ccc2nc1-c1ccc(F)cc1)C(=O)O` (stereo partly drawn) [compound 455, 5-(7-(((R)-6-chloro-1,2,3,4-tetrahydronaphthalen-1-yl)carbamoyl)-3-(4-fluorophenyl)quinoxalin-2-yl)-2-methylpentanoic acid] is 2.1 to 20 nM; for `O=C(O)CCCCc1nc2cc(C(=O)N[C@@H]3CCCc4ccccc43)c(F)cc2nc1-c1ccc(F)cc1` [compound 717, (R)-5-(6-fluoro-3-(4-fluorophenyl)-7-((1,2,3,4-tetrahydronaphthalen-1-yl)carbamoyl)quinoxalin-2-yl)pentanoic acid] it is 2.1 to 20 nM; for `C[C@@H](CCCc1nc2cc(C(=O)N[C@@H]3CCCc4ccccc43)ccc2nc1-c1ccc(F)cc1)C(=O)O` [compound 482, (S)-5-(3-(4-fluorophenyl)-7-(((R)-1,2,3,4-tetrahydronaphthalen-1-yl)carbamoyl)quinoxalin-2-yl)-2-methylpentanoic acid] it is 2.1 to 20 nM.

Turning to `O=C(O)CCCCc1nc2cc(C(=O)N[C@@H](c3ccccc3)C(F)(F)F)ccc2nc1-c1ccccc1` [15F, 5-(3-phenyl-7-{[(1S)-2,2,2-trifluoro-1-phenylethyl]carbamoyl}quinoxalin-2-yl) pentanoic acid], the Ki under setting [1] lay within 2.1 to 20 nM. `O=C(O)CCCCc1nc2cc(C(=O)N3CC(c4nc(-c5ccncc5)no4)C3)ccc2nc1-c1ccc(Cl)cc1` [compound 326, 5-(3-(4-chlorophenyl)-7-(3-(3-(pyridin-4-yl)-1,2,4-oxadiazol-5-yl)azetidine-1-carbonyl)quinoxalin-2-yl)pentanoic acid] came in with a Ki ([3H]PGD2 competition, Table B) of 2.1 to 20 nM. Under setting [1], `O=C(O)CCCCc1nc2cc(C(=O)N3CCC(n4c(=O)[nH]c5ccccc54)CC3)ccc2nc1-c1ccccc1` [compound 117, 7-[[4-(2,3-dihydro-2-oxo-1H-benzimidazol-1-yl)-1-piperidinyl]carbonyl]-3-phenyl-2-quinoxalinepentanoic acid] returned a Ki of 2.1 to 20 nM. As for `O=C(O)Cc1ccc(CCc2nc3cc(C(=O)N4CCC(c5ccccc5)CC4)ccc3nc2-c2ccc(Cl)cc2)cc1` [compound 158, 4-[2-[3-(4-chlorophenyl)-7-[(4-phenyl-1-piperidinyl)carbonyl]-2-quinoxalinyl]ethyl] benzeneacetic acid], under setting [1], the Ki fell in the range of 201 to 700 nM.
